{"source": "ChEMBL document CHEMBL5331083", "about": "“Targeting ferroptosis: Paving new roads for drug design and discovery” (Eur J Med Chem, 2023)", "assay_type_in_all_cases": "functional, cell-based", "key": {"[1]": {"assay": "Inhibition of ferroptosis in tamoxifen induced Gpx4-/- mouse MEF cells"}, "[2]": {"assay": "Inhibition of erastin-induced cell death in human HT-1080 cells"}, "[3]": {"test_system": "MCF7", "assay": "Cytotoxicity against human MCF7 cells incubated for 48 hrs by MTT assay", "details": "MCF7, 48 h"}, "[4]": {"test_system": "HT-22", "assay": "Inhibition of erastin-induced ferroptosis in mouse HT-22 cells incubated for 24 hrs by MTT assay", "details": "HT-22, 24 h"}, "[5]": {"test_system": "HT-22", "assay": "Inhibition of RSL3-induced ferroptosis in mouse HT-22 cells incubated for 24 hrs by MTT assay", "details": "HT-22, 24 h"}}}
{"smiles": "Clc1cccc(CNC2=Nc3ccccc3NC23CCNCC3)c1", "values": [{"measurement": "IC50", "setting": "[1]", "result": 22, "unit": "nM"}]}
{"smiles": "CCOC(=O)c1ccc(NC2CCCCC2)c(N)c1", "values": [{"measurement": "IC50", "setting": "[2]", "result": 95, "unit": "nM"}]}
{"smiles": "CCOC(=O)c1ccc(NC2CCCCC2)c(NCc2ccccc2)c1", "values": [{"measurement": "IC50", "setting": "[2]", "result": 6, "unit": "nM"}]}
{"smiles": "COc1cc(O)c2c(=O)cc(-c3ccc(O)c(-c4c(O)cc5oc(-c6ccc(O)cc6)cc(=O)c5c4OC)c3)oc2c1", "values": [{"measurement": "IC50", "setting": "[3]", "result": 11900, "unit": "nM"}]}
{"smiles": "CCO[C@@H]1C[C@@H]2C[C@@H]([C@@]3(C)[C@H](C)C[C@H](OC(C)=O)[C@]4(COC(C)=O)[C@@H]3CC[C@H](OC(=O)C(C)CC)[C@]43CO3)O[C@@H]2O1", "note": "(stereo partly specified)", "values": [{"measurement": "EC50", "setting": "[4]", "result": 4100, "unit": "nM"}, {"measurement": "EC50", "setting": "[5]", "result": 3600, "unit": "nM"}]}
